Converted amounts (≈) assume the structure as drawn.
Columns and labels:
E. coli [1] = assay: Agar diffusion method, inhibition zone diameter; assay type: cell-based, Escherichia coli; conditions: Gram-negative
Excerpt: (§1) The bacterial growth inhibition activity of most of the newly synthesized compounds was examined against different Gram-positive and Gram-negative strains. The Agar diffusion method was used to assess the antibacterial and antifungal activity. The Gram-negative strains were: E. coli, K. pneumonia, P. aeruginosa and A. baumannii, the Gram-positive strains were: St. aureus, St. mutans and the standard antibiotics were gentamicin, tigecycline and ampicillin.
(§2) The agar-based media plate surface was inoculated by spreading a volume of the microbial inoculum over the entire agar surface.
(§3) Using a sterile cork borer or a tip, a hole with a diameter of 6 to 8 mm was made.
(§4) Using a micropipette, (20 µL) volume of the antimicrobial agent or extract solution at the desired concentration was introduced into the well.
(§5) The inoculated plates were incubated under suitable conditions depending upon the tested microorganism. The antimicrobial agent diffused through the agar medium and inhibited the growth of the microbial strain tested.
(§6) After a suitable incubation period (16 to 48 hours) according to the optimum growth conditions, the resulting inhibition zone diameters (in mm) around the wells were measured to the nearest whole millimeter at the point at which there is a prominent reduction in growth. If growth is insufficient at the recommended times, the plates should be re-incubated and read later.

A. baumannii [2] = assay: Agar diffusion method, inhibition zone diameter; assay type: cell-based, Acinetobacter baumannii; conditions: Gram-negative
Excerpt: as §1, §2, §3, §4, §5, §6

A. baumannii [3] = assay: Minimum inhibition concentration, serial dilution; assay type: cell-based, Acinetobacter baumannii; conditions: Acinetobacter baumannii, 37 °C
Procedure: (§7) For each strain, three to five isolated colonies were selected from the fresh agar plate and transferred into a tube containing 3-4 ml of the sterile broth medium. The bacterial suspension was mixed well and incubated at 35-37 °C for 2-6 hours. […] After that, 1 mg of the tested compound (antimicrobial agent) was dissolved in 1 ml of DMSO and a two-fold serial dilution was done using a broth medium. A fixed volume of the prepared bacterial inoculum was added to each tube and incubated at 37 °C for 16-20 hours. The MIC is defined as the lowest concentration of the antimicrobial agent that inhibits visible growth of the tested isolate as observed with the unaided eye.

K. pneumonia [4] = assay: Minimum inhibition concentration, serial dilution; assay type: cell-based, Klebsiella pneumonia; conditions: Klebsiella pneumoniae, 37 °C
Procedure: as §7

E. coli [5] = assay: Minimum inhibition concentration, serial dilution; assay type: cell-based, Escherichia coli; conditions: Escherichia coli, 37 °C
Procedure: as §7

K. pneumonia [6] = assay: Agar diffusion method, inhibition zone diameter; assay type: cell-based, Klebsiella pneumonia; conditions: Gram-negative
Excerpt: as §1, §2, §3, §4, §5, §6

P. aeruginosa [7] = assay: Agar diffusion method, inhibition zone diameter; assay type: cell-based, Pseudomonas aeruginosa; conditions: Gram-negative
Excerpt: as §1, §2, §3, §4, §5, §6

St. aureus = assay: Agar diffusion method, inhibition zone diameter; assay type: cell-based, Staphylococcus aureus; conditions: Gram-positive
Excerpt: as §1, §2, §3, §4, §5, §6

P. aeruginosa [8] = assay: Minimum inhibition concentration, serial dilution; assay type: cell-based, Pseudomonas aeruginosa; conditions: Pseudomonas aeruginosa, 37 °C
Procedure: as §7

St. mutans = assay: Agar diffusion method, inhibition zone diameter; assay type: cell-based; conditions: Gram-positive
Excerpt: as §1, §2, §3, §4, §5, §6

Compound | IZD E. coli (E. coli [1]) [mm] | IZD A. baumannii (A. baumannii [2]) [mm] | IZD K. pneumonia (K. pneumonia [6]) [mm] | IZD P. aeruginosa (P. aeruginosa [7]) | further results
O=C(Nc1ccccc1)C(=Cc1ccccc1)c1nc2ccccc2s1 [4a, 2-(Benzo[d]thiazol-2-yl)-N,3-diphenylacrylamide] | 11 ± 1 | – | – | – | –
COc1ccc(C=C(C(=O)Nc2ccccc2)c2nc3ccccc3s2)cc1 [4b, 2-(Benzo[d]thiazol-2-yl)-3-(4-methoxyphenyl)-N-phenylacrylamide] | – | 13 ± 1 | – | – | –
O=C(Nc1ccccc1)C(=Cc1ccc(Cl)cc1)c1nc2ccccc2s1 [4d, 2-(Benzo[d]thiazol-2-yl)-3-(4-chlorophenyl)-N-phenylacrylamide] | 20 ± 1 | 15 ± 1 | 20 ± 1 | no activity | MIC (A. baumannii [3]): 0.25 µg/mL (≈ 0.64 µM); MIC (K. pneumonia [4]): 0.125 µg/mL (≈ 0.32 µM); MIC (E. coli [5]): 0.125 µg/mL (≈ 0.32 µM)
COc1ccc(C=C(C(=O)Nc2ccc(C)cc2)c2nc3ccccc3s2)cc1OC [4g, 2-(Benzo[d]thiazol-2-yl)-3-(3,4-dimethoxyphenyl)-N-(p-tolyl)acrylamide] | 18 ± 1 | – | – | – | –
O=C(Nc1ccc(Cl)cc1)C(=Cc1ccccc1)c1nc2ccccc2s1 [4i, 2-(Benzo[d]thiazol-2-yl)-N-(4-chlorophenyl)-3-phenylacrylamide] | 20 ± 1 | 15 ± 1 | 23 ± 1 | no activity | IZD St. aureus (St. aureus): 12 ± 1 mm; MIC (K. pneumonia [4]): 0.125 µg/mL (≈ 0.32 µM); MIC (E. coli [5]): 0.125 µg/mL (≈ 0.32 µM)
O=C(Nc1ccc(Cl)cc1)C(=Cc1ccc(OC(=O)c2ccccc2)cc1)c1nc2ccccc2s1 [4o, 4-(2-(Benzo[d]thiazol-2-yl)-3-((4-chlorophenyl)amino)-3-oxoprop-1-en-1-yl)phenyl-benzoate] | – | 10 ± 1 | 13 ± 1 | – | –
O=C(Nc1ccccc1)C(=Cc1cn(-c2ccccc2)nc1-c1ccccc1)c1nc2ccccc2s1 [6a, 2-(Benzo[d]thiazol-2-yl)-3-(1,3-diphenyl-1H-pyrazol-4-yl)-N-phenylacrylamide] | 20 ± 1 | – | 20 ± 1 | 23 ± 1 mm | MIC (P. aeruginosa [8]): 0.125 µg/mL (≈ 0.251 µM); MIC (K. pneumonia [4]): 0.0625 µg/mL (≈ 0.125 µM); MIC (E. coli [5]): 0.0625 µg/mL (≈ 0.125 µM)
Cc1ccc(-c2nn(-c3ccccc3)cc2C=C(C(=O)Nc2ccccc2)c2nc3ccccc3s2)cc1 [6b, 2-(Benzo[d]thiazol-2-yl)-N-phenyl-3-(1-phenyl-3-(p-tolyl)-1H-pyrazol-4-yl)acrylamide] | – | 10 ± 1 | 13 ± 1 | – | –
O=C(Nc1ccccc1)C(=Cc1cn(-c2ccccc2)nc1-c1ccc(Cl)cc1)c1nc2ccccc2s1 [6c, 2-(Benzo[d]thiazol-2-yl)-3-(3-(4-chlorophenyl)-1-phenyl-1H-pyrazol-4-yl)-N-phenyl-acrylamide] | – | 13 ± 1 | – | – | –
Cc1ccc(NC(=O)C(=Cc2cn(-c3ccccc3)nc2-c2ccccc2)c2nc3ccccc3s2)cc1 [6d, 2-(Benzo[d]thiazol-2-yl)-3-(1,3-diphenyl-1H-pyrazol-4-yl)-N-(p-tolyl)acrylamide] | – | 10 ± 1 | 13 ± 1 | – | –
Cc1ccc(NC(=O)C(=Cc2cn(-c3ccccc3)nc2-c2ccc(C)cc2)c2nc3ccccc3s2)cc1 [6e, 2-(Benzo[d]thiazol-2-yl)-3-(1-phenyl-3-(p-tolyl)-1H-pyrazol-4-yl)-N-(p-tolyl)acrylamide] | 31 ± 1 | – | 36 ± 0.8 | – | IZD St. aureus (St. aureus): 29 ± 0.5 mm
Cc1ccc(-c2nn(-c3ccccc3)cc2C=C(C(=O)Nc2ccc(Cl)cc2)c2nc3ccccc3s2)cc1 [6h, 2-(Benzo[d]thiazol-2-yl)-N-(4-chlorophenyl)-3-(1-phenyl-3-(p-tolyl)-1H-pyrazol-4-yl)acrylamide] | – | 13 ± 1 | – | – | –
O=C(Nc1ccc(Cl)cc1)/C(=C\c1cn(-c2ccccc2)nc1-c1ccc(Cl)cc1)c1nc2ccccc2s1 [6i] | 18 ± 0.5 | 19 ± 0.5 | – | – | IZD St. aureus (St. aureus): 14 ± 1 mm; IZD St. mutans (St. mutans): 15 ± 1 mm
N#Cc1c(-c2ccccc2)c(-c2nc3ccccc3s2)c(=O)n(-c2ccccc2)c1N [11a, 2-Amino-5-(benzo[d]thiazol-2-yl)-6-oxo-1,4-diphenyl-1,6-dihydropyridine-3-carbonitrile] | 18 ± 0.5 | 19 ± 0.5 | – | – | IZD St. aureus (St. aureus): 14 ± 1 mm; IZD St. mutans (St. mutans): 15 ± 1 mm
COc1ccc(-c2c(C#N)c(N)n(-c3ccccc3)c(=O)c2-c2nc3ccccc3s2)cc1 [11b, 2-Amino-5-(benzo[d]thiazol-2-yl)-4-(4-methoxyphenyl)-6-oxo-1-phenyl-1,6-dihydro-pyridine-3-carbonitrile] | 19 ± 1 | 15 ± 1 | – | – | –
COc1ccc(-c2c(C#N)c(N)n(-c3ccc(C)cc3)c(=O)c2-c2nc3ccccc3s2)cc1 [11d, 2-Amino-5-(benzo[d]thiazol-2-yl)-4-(4-methoxyphenyl)-6-oxo-1-(p-tolyl)-1,6-dihydro-pyridine-3-carbonitrile] | 35 ± 1 | 10 ± 1 | 23 ± 1 | 13 ± 1 mm | MIC (K. pneumonia [4]): 0.0625 µg/mL (≈ 0.135 µM); MIC (E. coli [5]): 0.0315 µg/mL (≈ 0.0678 µM)
COc1ccc(-c2c(C#N)c(N)n(-c3ccc(Cl)cc3)c(=O)c2-c2nc3ccccc3s2)cc1 [11f, 2-Amino-5-(benzo[d]thiazol-2-yl)-1-(4-chlorophenyl)-4-(4-methoxyphenyl)-6-oxo-1,6-dihydropyridine-3-carbonitrile] | 17 ± 1.1 | 15 ± 1.1 | 20 ± 1.1 | 16 ± 1 mm | IZD St. aureus (St. aureus): 20 ± 1.1 mm; IZD St. mutans (St. mutans): 20 ± 1.1 mm
CNC(C)C1CCC(N)C(OC2C(N)CC(N)C(OC3OCC(C)(O)C(NC)C3O)C2O)O1 (centres unmarked) [Gentamicin, reference compound] | 27 ± 0.1 | – | 29 ± 0.5 | 32 ± 0.4 mm | MIC (A. baumannii [3]): 0.0312 µg/mL (≈ 0.0654 µM); MIC (P. aeruginosa [8]): 0.0312 µg/mL (≈ 0.0654 µM); MIC (K. pneumonia [4]): 0.0625 µg/mL (≈ 0.131 µM); MIC (E. coli [5]): 0.0312 µg/mL (≈ 0.0654 µM)
CN(C)c1cc(NC(=O)CNC(C)(C)C)c(O)c2c1C[C@H]1C[C@H]3[C@H](N(C)C)C(O)=C(C(N)=O)C(=O)[C@@]3(O)C(O)=C1C2=O [Tigecycline, reference compound] | – | 23 ± 0.4 | – | – | MIC (A. baumannii [3]): 0.0312 µg/mL (≈ 0.0534 µM)
